According to PubChem BioAssay AID1963447 (Molecular Pharmacology Branch, DTP, NCI, 2024):

Tested on: 885512-296-R-J2-PDC complex spheroid growth, % test/control
Assay: Anticancer human tumor 885512-296-R-J2-PDC patient-derived breast carcinoma cell line growth inhibition [Asc]
Settings: for IC50: curve of first compound; for viability, T/C: stronger effect = lower value
How it was run: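 Spheroid model: tumor line + HUVEC + hMSC. Single agents and combinations; top conc. at/near clinical Cmax (10 microM if undetermined), half-log dilutions. DMSO stocks at 800-fold test concentration.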

[1] = second compound 0.01 µM, first compound 0.0316 µM
[2] = second compound 0.01 µM, first compound 0.1 µM
[3] = second compound 0.01 µM, first compound 0.316 µM
[4] = second compound 0.01 µM, first compound 1 µM
[5] = second compound 0.01 µM, first compound 3.16 µM
[6] = second compound 0.01 µM, first compound 10 µM
[7] = second compound 0.0316 µM, first compound 0.0316 µM
[8] = second compound 0.0316 µM, first compound 0.1 µM
[9] = second compound 0.0316 µM, first compound 0.316 µM
[10] = second compound 0.0316 µM, first compound 1 µM
[11] = second compound 0.0316 µM, first compound 3.16 µM
[12] = second compound 0.0316 µM, first compound 10 µM
[13] = second compound 0.1 µM, first compound 0.0316 µM
[14] = second compound 0.1 µM, first compound 0.1 µM
[15] = second compound 0.1 µM, first compound 0.316 µM
[16] = second compound 0.1 µM, first compound 1 µM
[17] = second compound 0.1 µM, first compound 3.16 µM
[18] = second compound 0.1 µM, first compound 10 µM
[19] = second compound 0.316 µM, first compound 0.0316 µM
[20] = second compound 0.316 µM, first compound 0.1 µM
[21] = second compound 0.316 µM, first compound 0.316 µM
[22] = second compound 0.316 µM, first compound 1 µM
[23] = second compound 0.316 µM, first compound 3.16 µM
[24] = second compound 0.316 µM, first compound 10 µM
[25] = second compound 1 µM, first compound 0.0316 µM
[26] = second compound 1 µM, first compound 0.1 µM
[27] = second compound 1 µM, first compound 0.316 µM
[28] = second compound 1 µM, first compound 1 µM
[29] = second compound 1 µM, first compound 3.16 µM
[30] = second compound 1 µM, first compound 10 µM
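Also: spheroids exposed to compounds for seven days.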
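For viability, T/C in this document: 100% = DMSO vehicle control wells.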

Row | Structure (SMILES) | IC50 (second compound 0.01 µM) [nM] | IC50 (second compound 0.0316 µM) [nM] | IC50 (second compound 0.1 µM) [nM] | IC50 (second compound 0.316 µM) [nM] | IC50 (second compound 1 µM) [nM] | viability, T/C [1] [%] | viability, T/C [2] [%] | viability, T/C [3] [%] | viability, T/C [4] [%] | viability, T/C [5] [%] | viability, T/C [6] [%] | viability, T/C [7] [%] | viability, T/C [8] [%] | viability, T/C [9] [%] | viability, T/C [10] [%] | viability, T/C [11] [%] | viability, T/C [12] [%] | viability, T/C [13] [%] | viability, T/C [14] [%] | viability, T/C [15] [%] | other results
1 | C#Cc1c(F)ccc2cc(O)cc(-c3ncc4c(N5CC6CCC(C5)N6)nc(OCC56CCCN5CC(F)C6)nc4c3F)c12 (stereo not given) + CNC(C)C(=O)NC1CN(S(=O)(=O)c2cccc(S(=O)(=O)N3CCC4CCC(C(=O)NC(c5ccccc5)c5ccccc5)N4C(=O)C(NC(=O)C(C)NC)C3)c2)CCC2CCC(C(=O)NC(c3ccccc3)c3ccccc3)N2C1=O | > 10000 | > 10000 | > 10000 | > 10000 | > 10000 | 94.5 | 111 | 83.5 | 69.7 | 89.9 | 94.5 | 102 | 104 | 96.6 | 110 | 108 | 91.5 | 102 | 97 | 109 | viability, T/C [16]: 99.4%; viability, T/C [17]: 108%; viability, T/C [18]: 86.9%; viability, T/C [19]: 112%; viability, T/C [20]: 109%; viability, T/C [21]: 104%; viability, T/C [22]: 112%; viability, T/C [23]: 107%; viability, T/C [24]: 86.7%; viability, T/C [25]: 107%; viability, T/C [26]: 108%; viability, T/C [27]: 116%; viability, T/C [28]: 105%; viability, T/C [29]: 105%; viability, T/C [30]: 94.6%
2 | C=C(F)C(=O)N1CCN(c2nc(OCC3CCCN3C)nc3c2CCN(c2cccc4cccc(Cl)c24)C3)CC1CC#N (stereo not given) + CNC(C)C(=O)NC1CN(S(=O)(=O)c2cccc(S(=O)(=O)N3CCC4CCC(C(=O)NC(c5ccccc5)c5ccccc5)N4C(=O)C(NC(=O)C(C)NC)C3)c2)CCC2CCC(C(=O)NC(c3ccccc3)c3ccccc3)N2C1=O | 2660 | 2290 | 2450 | 2240 | 2240 | 88.6 | 91.8 | 95.7 | 84.8 | 43.8 | 0.11 | 100 | 101 | 100 | 99.7 | 30.7 | 0.3 | 105 | 102 | 102 | viability, T/C [16]: 104%; viability, T/C [17]: 34.9%; viability, T/C [18]: 0.09%; viability, T/C [19]: 110%; viability, T/C [20]: 103%; viability, T/C [21]: 113%; viability, T/C [22]: 103%; viability, T/C [23]: 27.5%; viability, T/C [24]: 0.09%; viability, T/C [25]: 114%; viability, T/C [26]: 113%; viability, T/C [27]: 115%; viability, T/C [28]: 95.3%; viability, T/C [29]: 30.5%; viability, T/C [30]: 0.38%
